According to the supplement of paper PMC3974653:
Structures can show the parent of a compound that is named as a salt.

Test system: MTT (mouse pheochromocytoma)
Assay: IC50 of cell viability (ATP content)
Conditions: (24 or 48 h)
In short: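 The IC50 was fitted with a four-parameter logistic equation to normalised CellTiter-Glo ATP luminescence from MTT mouse pheochromocytoma cells. These cells, in white 1536-well plates, had been treated for 24 or 48 hrs with library compounds at 8 final concentrations between 0.5 nM and 46 µM, and luminescence was read after 15 minutes. Positive-control wells served as 100% and DMSO wells as 0%.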

Row | SMILES | IC50 of cell viability
1 | CC1(C)CO[C@@H](CC(=O)O)CN1 | > 46 µM
2 | CCC(=O)OC1[C@@H](N2CCCCC2)C[C@H]2[C@@H]3CC[C@H]4C[C@H](OC(C)=O)[C@@H](N5CCCCC5)C[C@]4(C)[C@H]3CC[C@]12C (stereo partly drawn) | > 46 µM
3 | CCC(=O)O[C@@](Cc1ccccc1)(c1ccccc1)[C@H](C)CN(C)C | > 46 µM
4 | CCc1ccc(S(=O)(=O)O)cc1 | > 46 µM
5 | CCCCCCC(=O)CCCCCC/C=C/C[C@@H](O)[C@H](O)[C@@](N)(CO)C(=O)O | > 46 µM
6 | CCCCCCCCCCCCCCCCCC[N+](C)(C)CCC[Si](OC)(OC)OC | > 46 µM
7 | CCCCNc1ccc(C(=O)OCCN(C)C)cc1 | > 46 µM
8 | CCCSc1cc(OC)c(CCN)cc1OC | > 46 µM
9 | CCN(CC)C(=O)c1cc([S+](=O)([O-])Cc2ccccc2)c(N2CCC(c3ccccc3)CC2)cc1N(CC)CCN(C)C | > 46 µM
10 | CC[C@@H](O)C(C[C@@H](C)N(C)C)(c1ccccc1)c1ccccc1 | > 46 µM
11 | CC[C@H](O)C(C[C@H](C)N(C)C)(c1ccccc1)c1ccccc1 | > 46 µM
12 | CC[C@H](OC(C)=O)C(C[C@H](C)NC)(c1ccccc1)c1ccccc1 | > 46 µM
13 | CN1C(=O)COc2c(C(=O)NC3CN4CCC3CC4)cc(Cl)cc21 (stereo not drawn) | > 46 µM
14 | CN1C2CCC1CC(OC(=O)c1cc(Cl)cc(Cl)c1)C2 (stereo not drawn) | > 46 µM
15 | COc1cc(CCN)c(OC)cc1Br | > 46 µM
16 | COc1ccc(C2NC(=S)N3C(c4ccc(OC)c(OC)c4)NC(=S)N23)cc1OC (stereo not drawn) | > 46 µM
17 | COc1cc2c(cc1OC)[C@@H](c1ccccc1)CN(C)CC2.O=C(O)/C=C\C(=O)O | > 46 µM
18 | ClC1=C(Cl)C2(Cl)C(CBr)CC1(Cl)C2(Cl)Cl (stereo not drawn) | > 46 µM
19 | F/C(COc1ccc2c(c1)[nH]c1ccccc12)=C1/CN2CCC1CC2 | > 46 µM
20 | O=C1c2ccccc2-c2n[nH]c3cccc1c23 | > 46 µM
21 | O=C(O)CN(CCOCCOCCN(CC(=O)O)CC(=O)O)CC(=O)O | > 46 µM
22 | O=C(O)/C=C\C(=O)O.O=C(O)/C=C\C(=O)O.c1cc(CN2CCCCC2)cc(OCCCNc2nc3ccccc3s2)c1 | > 46 µM
23 | C1CCNCC1.Oc1ncnc2[nH]cc(CN3CCCCC3)c12 | > 46 µM
24 | O=C(O)CCCO | > 46 µM

Row | SMILES | IC50 of cell viability
25 | NCCO/C=C/C(N)C(=O)O (stereo not drawn) | > 46 µM
26 | C[C@H](O)CN(C)C | > 46 µM
27 | CCOC(=O)C(CS)NCCN[C@@H](CS)C(=O)OCC (stereo partly drawn) | > 46 µM
28 | C=Cc1ccc(S(=O)(=O)[O-])cc1 | > 46 µM
29 | CNC[C@H](O)c1ccc(O)cc1 (racemic) [(+,-)-Synephrine] | > 46 µM
30 | COc1cc(CC(C)N)c(OC)cc1Br (racemic) [(±)-2,5-Dimethoxy-4-bromoamphetamine hydrobromide] | > 46 µM
31 | CC(N)Cc1ccc2c(c1)OCO2 (racemic) [(±)-3,4-Methylenedioxyamphetamine hydrochloride] | > 46 µM
32 | CCCCCC(O)/C=C/C=O (racemic) [(±)-4-Hydroxynon-2-enal] | > 46 µM
33 | NCC(O)c1ccc(O)cc1 (racemic) [DL-OCTOPAMINE] | > 46 µM
34 | O=C(O)[C@@H]1CCCN1 (racemic) [DL-Proline] | > 46 µM
35 | Cl.NCCCC(N)(C(=O)O)C(F)F (racemic) [DL-alpha-Difluoromethylornithine hydrochloride] | > 46 µM
36 | CCCCCCCCCCCCCCC[C@H](O)[C@H](N)CO (racemic) [DL-erythro-Dihydrosphingosine] | > 46 µM
37 | COCCc1ccc(OC[C@H](O)CNC(C)C)cc1.COCCc1ccc(OC[C@H](O)CNC(C)C)cc1.O=C(O)[C@@H](O)[C@@H](O)C(=O)O (racemic) [Metoprolol-(+,-) (+)-tartrate salt] | > 46 µM
38 | CC(=O)N[C@@H]1CCSC1=O (racemic) [N-Acetyl-DL-homocysteine Thiolactone] | > 46 µM
39 | CC1=CCC(C(C)(C)O)CC1 (racemic) [Terpineol, mixture of isomers] | > 46 µM
40 | C[C@H]1C2Cc3ccc(O)cc3[C@]1(C)CCN2CC1CC1 (single isomer, unassigned; (+)) [(+)-Cyclazocine] | > 46 µM
41 | CCc1cc(OC)c(CC(C)N)cc1OC (single isomer, unassigned; (-)) [(-)-2,5-Dimethoxy-4-ethylamphetamine] | > 46 µM
42 | COc1cc(CC(C)N)c(OC)cc1C (single isomer, unassigned; (-)) [(-)-2,5-Dimethoxy-4-methylamphetamine] | > 46 µM
43 | COc1ccc(OC)c(CC(C)N)c1 (single isomer, unassigned; (-)) [(-)-2,5-Dimethoxyamphetamine] | > 46 µM
44 | COc1cc(CC(C)N)c(OC)cc1Br (single isomer, unassigned; (-)) [(-)-4-Bromo-2,5-dimethoxyamphetamine] | > 46 µM
45 | CN1C2CCC1C(C(=O)O)C(OC(=O)c1ccccc1)C2 (single isomer, unassigned; (-)) [(-)-Benzoylecgonine] | > 46 µM
46 | COC(=O)C1C(OC(=O)c2ccccc2)CC2CCC1N2C (single isomer, unassigned; (-)) [(-)-Cocaine] | > 46 µM
47 | CCNC(C)Cc1cccc(C(F)(F)F)c1 (single isomer, unassigned; (-)) [(-)-Fenfluramine] | > 46 µM

More lines, now with the values ahead:

Row | IC50 of cell viability | SMILES
48 | > 46 µM | CC(=O)NC\1=N\C(=O)N(\C=C1)C2COC(COC(=O)C3=CC=CC=C3)O2 (stereo not drawn)
49 | > 46 µM | C=C1CC2C3C=C(C)C4=CC(=O)CCC4(C)C3CCC2(C)[C@@]1(OC(C)=O)C(C)=O (stereo partly drawn)
50 | > 46 µM | CC(C)C1NC(=O)[C@@H](NC(=O)C2=C3\N=C\4/C(=C(/C)C(=O)\C(=C4C(=O)N[C@H]5[C@@H](C)OC(=O)C(C(C)C)N(C)C(=O)CN(C)C(=O)[C@@H]6CCCN6C(=O)C(NC5=O)C(C)C)N)OC3=C(C)C=C2)[C@@H](C)OC(=O)C(C(C)C)N(C)C(=O)CN(C)C(=O)[C@@H]7CCCN7C1=O (stereo partly drawn)
51 | > 46 µM | Cc1c(O)cc2c(c1C)O[C@](C)(CCC[C@H](C)CCC[C@H](C)CCCC(C)C)CC2
52 | > 46 µM | CC(C)OC(=O)c1cc2c(OCC(O)CNC(C)(C)C)cccc2[nH]1 (stereo not drawn)
53 | > 46 µM | Cc1cccc(Nc2cc(Cl)nc(SCC(=O)O)n2)c1C
54 | > 46 µM | CCC(=O)OC1CCC2C3CCc4cc(O)ccc4C3CCC12C (stereo not drawn)
55 | > 46 µM | CCC(=O)Oc1ccc2c(c1)CCC1C2CC[C@]2(C)C(OC(=O)CC)CCC12 (stereo partly drawn)
56 | > 46 µM | CCCc1c(OCCCCc2nnn[nH]2)ccc(C(C)=O)c1O
57 | > 46 µM | CC[N+](CC)(CC(=O)Nc1c(C)cccc1C)Cc1ccccc1.O=C([O-])c1ccccc1
58 | > 46 µM | COc1ccccc1N1CCN(CCCCNC(=O)c2ccc(-c3ccc(C(C)=O)cc3)cc2)CC1
59 | > 46 µM | C[C@@]12CCC[C@H]1[C@@H]1CC[C@H]3C[C@@H](O)CC[C@]3(C)[C@H]1CC2
60 | > 46 µM | Cc1c(C(=O)NCCO)[n+](=O)c2ccccc2n1[O-]
61 | > 46 µM | Cl.Cn1ccc2cc3c(cc21)CCN3C(=O)Nc1cccnc1
62 | > 46 µM | Nc1nc(Cl)nc2c1ncn2C1CC(O)C(CO)O1 (stereo not drawn)
63 | > 46 µM | NC1CCN(c2cccc(Cl)n2)CC1
64 | > 46 µM | O=C1CC2(CCCC2)CC(=O)N1CCNCC1COc2ccccc2O1 (stereo not drawn)
65 | > 46 µM | O=C(O)[C@H]1C[C@@H](CP(=O)(O)O)CCN1
66 | > 46 µM | OC(CN1CCCCC1)c1cc(-c2ccccc2)on1 (stereo not drawn)
67 | > 46 µM | C=C(NCc1ccccc1)c1ccccc1O
68 | > 46 µM | O=C(NOCC(O)CO)c1ccc(F)c(F)c1Nc1ccc(I)cc1F (stereo not drawn)
69 | > 46 µM | O=C1CCC(N2C(=O)c3ccccc3C2=O)C(=O)N1 (racemic) [(+-)-Thalidomide]
70 | > 46 µM | COCCc1ccc(OCC(O)CNC(C)C)cc1 (racemic) [(±)-Metoprolol (+)-tartrate salt]
71 | > 46 µM | CC\1=C(/CCN2CCC(CC2)C3=NOC4=C3C=CC(=C4)F)C(=O)[N@@]\5CCC[C@H](O)C5=N1 (racemic) [rac 9-Hydroxy Risperidone]
72 | > 46 µM | COC(=O)C\1=C(C)\N\C(=C(/[C@@H]1C2=CC(=CC=C2)[N+]([O-])=O)C(=O)O[C@@H]3CCCN(C3)CC4=CC=CC=C4)C (racemic) [rac Benidipine Hydrochloride]
73 | > 46 µM | O[C@@H](CNC[C@H](O)[C@H]1CCc2cc(F)ccc2O1)[C@@H]1CCc2cc(F)ccc2O1 (racemic) [rac Nebivolol Hydrochloride]
